Where two headings read alike, the source gives them in different places.
Legend:
Assay type in all cases: cell-based
[1] = system: HT29 human colorectal carcinoma cells; assay: XTT test, number of viable cells, HT29
Experimental: (§1) The effect of the four compounds 497, 631, 115 and 540 on the growth profile of cancer cells which express Fer was tested. The cells that were tested were: the colon cancer cell lines HT29 and HCT 116, the breast cancer cell lines MDA-MB-231 and MCF-7, and the prostate cancer cell lines PC3 and DU145. The effect of each of the four compounds on FS11 cells, a non malignant fibroblastic cell line, was also studied.
(§2) The cells were seeded in 96 wells microplates and were left to grow untreated overnight. Each of the […] compounds was dissolved in DMSO and was then added to each well in a dose dependent manner from 0.4 to 80 μM. The concentration of DMSO in each well was 0.4% v/v. Untreated cells and cells subjected to 0.4% DMSO alone, served as controls. The number of viable cells in each well was determined 48, 72, 96 hours after compounds addition, using the XTT test (Berridge, M. V. et al, 2005).
(§3) The effect of compound E626-0342 on the growth profile of cancer cells which express Fer was tested. The compound was added to the growth media of FS11-normal primary human fibroblasts and to two colon cancer cell lines, HCT116 and HT29, which express Fer.
(§4) Various cell lines were seeded in 96 wells microplates and were left to grow untreated overnight. Compound E626-0342, dissolved in DMSO at a stock concentration of 10 mM was then added to each well in a dose dependent manner, resulting in final concentrations extending from 0.5 to 15 μM. The final concentration of DMSO in each well was 1% v/v. Untreated cells and cells subjected to 1% DMSO alone, served as controls. The number of viable cells in each well was determined 96 hours after addition of the compound, using the XTT test (Berridge, M. V. et al, 2005).

[2] = system: HCT116 human colorectal carcinoma cells; assay: XTT test, number of viable cells, HCT116
Experimental: as §1, §2, §3, §4

[3] = system: MDA-MB-231 breast cancer cell line; assay: XTT test, number of viable cells, MDA-MB-231; details: Homo sapiens, concentrations tested up to 80 μM
Experimental: as §1, §2

[4] = system: MCF-7 breast cancer cell line; assay: XTT test, number of viable cells, MCF-7; details: Homo sapiens, MCF7, concentrations tested up to 80 μM
Experimental: as §1, §2

[5] = system: FS11 human fibroblastic cells; assay: XTT test, number of viable cells, FS11 non-malignant fibroblasts; details: for EC50: Homo sapiens, Fibroblast, XTT test, concentrations tested up to 80 μM
Experimental: as §1, §2, §3, §4

[6] = system: PC3 prostate cancer cell line; assay: XTT test, number of viable cells, PC3; details: concentrations tested up to 80 μM
Experimental: as §1, §2

murine Fer = molecular target: T1, murine Fer (Mus musculus, UniProt P70451); assay: Fer tyrosine phosphorylation in yeast cells expressing ectopic Fer (western blot); details: 40 μM for 48 h
T1 construct: expressed in transfected cells; host or cells: S. cerevisiae yeast cells harboring plasmid pAES-Fer
Experimental: To examine whether the above listed compounds affect the enzymatic activity of Fer, the protein tyrosine phosphorylation profile in yeast cells which ectopically express the murine Fer, was analyzed using the yeast system disclosed in WO2007/107991. Since the S. cerevisae yeast cells lack almost completely detectable, endogenous, tyrosine phosphorylation activity, the detected tyrosine phosphorylation signals result essentially from the kinase activity of the ectopic Fer. Furthermore, considering the negligible tyrosine-phosphorylation background in the cells, it is possible to specifically track the tyrosine phosphorylation level of Fer in the treated yeast cells.
Yeast cells expressing an ectopic Fer were treated with 40 μM of one of the compounds 497, 631, 115 and 540 for 48 h. […] The expression levels of Fer and the tyrosine phosphorylation profiles of the proteins before and after treatment with the compounds were determined using a western-blot analysis. […]
To examine whether E626-0342 affects the enzymatic activity of Fer, the protein tyrosine phosphorylation profile in yeast cells which ectopically express the murine Fer, was analyzed. Since the S. cerevisae yeast cells lack almost completely detectable, endogenous, tyrosine phosphorylation activity, the detected tyrosine phosphorylation signals result essentially from the kinase activity of the ectopic Fer. […]

[7] = system: DU145 prostate cancer cell line; assay: XTT test, number of viable cells, DU145; details: Homo sapiens, DU-145, concentrations tested up to 80 μM
Experimental: as §1, §2

[8] = HT-29, XTT test, concentrations tested up to 80 μM, read-out: EC50 on HT29
[9] = HCT-116, XTT test, concentrations tested up to 80 μM, read-out: EC50 on HCT116

T1 sequence (P70451 whole entry): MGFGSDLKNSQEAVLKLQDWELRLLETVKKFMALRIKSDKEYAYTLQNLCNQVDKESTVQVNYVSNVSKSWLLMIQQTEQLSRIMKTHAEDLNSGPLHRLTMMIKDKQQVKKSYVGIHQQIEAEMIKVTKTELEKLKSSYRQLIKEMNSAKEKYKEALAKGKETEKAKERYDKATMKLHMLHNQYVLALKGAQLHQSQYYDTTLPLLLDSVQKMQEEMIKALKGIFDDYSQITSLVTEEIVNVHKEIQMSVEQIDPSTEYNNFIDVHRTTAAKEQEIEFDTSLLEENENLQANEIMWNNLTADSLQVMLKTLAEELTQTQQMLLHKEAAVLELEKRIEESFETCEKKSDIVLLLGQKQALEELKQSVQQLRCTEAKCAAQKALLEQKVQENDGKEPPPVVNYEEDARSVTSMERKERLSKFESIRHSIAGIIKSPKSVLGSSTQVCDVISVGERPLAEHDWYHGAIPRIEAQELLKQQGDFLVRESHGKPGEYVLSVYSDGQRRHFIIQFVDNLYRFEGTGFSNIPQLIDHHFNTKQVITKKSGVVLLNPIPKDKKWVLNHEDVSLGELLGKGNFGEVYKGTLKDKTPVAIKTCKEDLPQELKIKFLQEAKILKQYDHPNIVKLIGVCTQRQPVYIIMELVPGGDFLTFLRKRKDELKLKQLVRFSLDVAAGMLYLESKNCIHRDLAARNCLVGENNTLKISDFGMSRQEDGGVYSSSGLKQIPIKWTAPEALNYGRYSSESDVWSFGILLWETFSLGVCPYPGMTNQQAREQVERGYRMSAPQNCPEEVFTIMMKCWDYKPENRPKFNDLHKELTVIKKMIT

EC50 [1, 8] [µM] | EC50 [2, 9] [µM] | EC50 [3] [µM] | EC50 [4] [µM] | EC50 ([1]; HT-29, 0.4% DMSO, 0.4 to 80 μM, read-out: EC50, decrease in cell viability, HT29) [µM] | EC50 ([2]; HCT-116, 0.4% DMSO, 0.4 to 80 μM, read-out: EC50, decrease in cell viability, HCT116) [µM] | EC50 [6] [µM] | tyrosine phosphorylation level of the Fer protein band (Fer autophosphorylation) (murine Fer) | IC50 ([1]; HT-29, after 96 h, read-out: IC50, reduction in number of viable cells, HT29) [µM] | IC50 ([2]; HCT-116, after 96 h, read-out: IC50, reduction in number of viable cells, HCT116) [µM] | EC50 [7] [µM] | Structure (SMILES) | EC50 [5] [µM] | effect on FS11 cells ([5]; up to a concentration of 80 μM)
32 | 32 | 40 | 8 | – | – | – | – | – | – | – | Cc1ccn2cc(-c3ccc(F)cc3)cc2c1 [Compound 115] | > 80 | –
30 | 24 | 32 | – | 40 | 24 | 32 | significant reduction | – | – | – | CC(C)c1nn2cc(-c3ccc(F)cc3)nc2s1 [Compound 631] | – | did not affect
2 | 2 | 2 | 8 | – | – | 4 | significant reduction | 2 | 2 | 8 | Nc1cc(-c2ccc(Cl)cc2)nn1S(=O)(=O)c1c(F)c(F)c(F)c(F)c1F [Compound 497] | 4 | –
